Assay results as given in patent US12071416B2, “Prodrugs of 4-( (1R, 3S)-6-chloro-3-phenyl-2, 3-dihydro-1H-inden-1-yl)-1,2, 2-trimethylpiperazine and 4-( (1R, 3S)-6-chloro-3-(phenyl-D5)-2, 3-dihydro-1H-inden-1-yl)-2, 2-dimethyl-1 (methyl-D3) piperazine” (H. Lundbeck A/S, priority 2018, dated 2024).
Where two headings read alike, the source gives them in different places.

Assay: Plasma stability assay
Type: in vitro ADME, human
Method: Frozen human plasma (stored at −80° C.) was thawed in a water bath followed by centrifugation at 3200×g for 5 min to remove debris. The pH value of the supernatant was then measured and adjusted to 7.4±0.1 by adding 1% phosphoric acid or 1 N sodium hydroxide.
For each test compound, 2 microL of dosing solution (50 microM for test compounds and 100 microM for positive control; propantheline bromide) were spiked into 98 microL of blank plasma to achieve a final concentration of 1 microM test compound and 2 microM positive control.
The test compounds and positive control were incubated in duplicate with human plasma (final DMSO concentration <1%) in a water bath at 37° C. at six different time points (0, 0.5, 1, 2, 4 and 6 hr). At each corresponding time point the incubations were terminated by adding appropriate volume of quenching solution to stop the reaction.
Afterwards, the plasma samples were briefly vortexed and subsequently centrifuged at 3200×g for 20 min. The supernatant was transferred into a 96-well plate and diluted with 200 microL of ultrapure water in the ratio of 1:2 prior to LC-MS/MS analysis. The peak area ratios (PAR) of analyte/internal standard was used to semi-quantitatively determine the concentration of test compounds and control compound. The percentage of test compound remaining at the individual time points relative to the 0 minute sample was reported.
In the determination of in vitro elimination constant, ke, of the parent drug and controls, the analyte/internal standard peak area ratios were converted to percentage remaining with the following equation: […]
The percentage formation of metabolite was calculated by the analyte/internal standard peak area ratios versus T0 (absolute) of metabolite drug and converted to percentage.
The half-life (T1/2) of parent drug and control compounds were calculated from a log linear plot of analyte/internal standard peak area ratios versus time (T1/2=0.693/ke).
Compounds 1a2, 1b2, 2a2, and 2b2 were incubated in human plasma as described above and half-lives of 0.5-1.5 h were determined with the formation of 15-35% of 4-((1R,3S)-6-chloro-3-phenyl-2,3-dihydro-1H-inden-1-yl)-1,2,2-trimethylpiperazine and 4-((1R,3S)-6-chloro-3-(phenyl-d5)-2,3-dihydro-1H-inden-1-yl)-2,2-dimethyl-1-(methyl-d3)piperazine, respectively.

[1] = human plasma, pH 7.4, 37° C., 1 microM test compound, 0-6 hr, LC-MS/MS, read-out: half-life (T1/2) in human plasma

half-life at 1 microM [1] [h] | half-life at 1 microM (human, plasma, pH 7.4) [h] | SMILES
0.5 to 1.5 | – | [2H]c1c([2H])c([2H])c([C@@H]2C[C@@H](N3CC[N@+](COC(=O)C(C)(C)C)(C([2H])([2H])[2H])C(C)(C)C3)c3cc(Cl)ccc32)c([2H])c1[2H].[Cl-] (single isomer, unassigned) [Compound 2a2]
– | 0.5 to 1.5 | [2H]c1c([2H])c([2H])c([C@@H]2C[C@@H](N3CC[N@@+](COC(=O)C(C)(C)C)(C([2H])([2H])[2H])C(C)(C)C3)c3cc(Cl)ccc32)c([2H])c1[2H].[Cl-] (single isomer, unassigned) [Compound 2b2]
– | 0.5 to 1.5 | CC(C)(C)C(=O)OC[N@@+]1(C)CCN([C@@H]2C[C@@H](c3ccccc3)c3ccc(Cl)cc32)CC1(C)C.[Cl-] (single isomer, unassigned) [Compound 1b2]
0.5 to 1.5 | – | CC(C)(C)C(=O)OC[N@+]1(C)CCN([C@@H]2C[C@@H](c3ccccc3)c3ccc(Cl)cc32)CC1(C)C.[Cl-] (single isomer, unassigned) [Compound 1a2]
